# Results taken from article PMC8617031, “Development of a BCL-xL and BCL-2 dual degrader with improved anti-leukemic activity,” (Nature Communications, 2021).
# “And” between values parts separate entries of the source, which are not always exact repeats. Equal values may be shown once.
# Assays:
# His-tagged BCL-2 = target: T1, His-tagged BCL-2 (Homo sapiens, UniProt P10415); assay: AlphaScreen competitive binary binding, BCL-2 (biotin-BIM peptide)
# T1 construct: purchased Sigma-Aldrich SRP0186
# Protocol: (§1) The reagents were diluted in a buffer containing 250 mM HEPES pH 7.5, 1 M NaCl, 1% BSA, and 0.05% Tween-80. His-tagged BCL-xL (0.5 nM, Cat. No. SRP0187, Sigma-Aldrich) or BCL-2 (1 nM, Cat. No. SRP0186, Sigma-Aldrich) were incubated with serial diluted 753a or 753b and 2 nM biotin-tagged BAD (biotin-[…] amino-terminal, AnaSpec, for BCL-xL) or 10 nM BIM peptides (biotin-[…] N-terminal, AnaSpec, for BCL-2) to a final volume of 40 µl in a 96-well PCR plate. […] After incubation for 2 h, 5 µl 6× His-acceptor beads (Cat. No. AL128M, PerkinElmer) were added to each well at 20 µg/ml final concentration and incubated for 1 h. Then 5 µl streptavidin-donor beads were added (Cat. No. 6760002, PerkinElmer) to each well at 20 µg/ml final concentration and incubated for 45 min. At the end of the incubation period, 17 µl of each sample was transferred in adjacent wells of 384-well proxy plate (Cat. No. 6008280, PerkinElmer). The plate was scanned using the Alpha program on Biotek’s Synergy Neo2 multimode plate reader. The inhibition constant (Ki) was calculated using the non-linear regression, one site, competitive binding, Fit Ki function on GraphPad Prism 9 software, based on experimentally determined dissociation constant (Kd) for each protein–peptide pair.
# His-tagged BCL-xL = target: T2, His-tagged BCL-xL (Homo sapiens, UniProt Q07817); assay: AlphaScreen competitive binary binding, BCL-xL (biotin-BAD peptide)
# T2 construct: purchased Sigma-Aldrich SRP0187
# Protocol: as §1
# [1] = AlphaScreen, Supplementary Fig. 6
# T1 sequence (P10415 whole entry): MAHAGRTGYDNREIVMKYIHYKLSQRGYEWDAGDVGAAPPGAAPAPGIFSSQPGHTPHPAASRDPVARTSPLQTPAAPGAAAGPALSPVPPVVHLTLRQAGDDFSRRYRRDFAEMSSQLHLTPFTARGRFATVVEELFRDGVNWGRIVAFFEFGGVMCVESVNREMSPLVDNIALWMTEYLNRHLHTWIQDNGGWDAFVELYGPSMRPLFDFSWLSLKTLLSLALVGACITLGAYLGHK
# T2 sequence (Q07817 whole entry): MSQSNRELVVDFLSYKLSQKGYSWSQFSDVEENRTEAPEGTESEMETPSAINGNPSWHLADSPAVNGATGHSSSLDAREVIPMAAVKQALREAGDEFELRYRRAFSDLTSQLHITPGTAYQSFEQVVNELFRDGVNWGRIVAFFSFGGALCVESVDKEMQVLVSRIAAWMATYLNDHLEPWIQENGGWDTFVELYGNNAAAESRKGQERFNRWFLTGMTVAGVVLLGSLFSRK
structure (smiles),measurement,setting,value
Cc1ncsc1-c1ccc([C@H](C)NC(=O)[C@@H]2C[C@@H](O)CN2C(=O)[C@@H](NC(=O)CCCCCCC(=O)N2CCN(C[C@@]3(C)CCC(c4ccc(Cl)cc4)=C(CN4CCN(c5ccc(C(=O)NS(=O)(=O)c6ccc(N[C@H](CCN7CCOCC7)CSc7ccccc7)c(S(=O)(=O)C(F)(F)F)c6)cc5)CC4)C3)CC2)C(C)(C)C)cc1 [753a],binary binding affinity to BCL-2 (in words),His-tagged BCL-2; [1],much weaker than that of the warhead ABT263
same,Alpha signal (raw counts),"His-tagged BCL-2; BCL-2 Rep-2, 0.00488281 uM",457099 and 452255
same,Alpha signal (raw counts),"His-tagged BCL-2; BCL-2 Rep-2, plate row C, 1.25 uM",11131 and 19293
same,Alpha signal (raw counts),"His-tagged BCL-2; BCL-2 Rep-2, plate row D, 0.3125 uM",23398 and 21436
same,Alpha signal (raw counts),"His-tagged BCL-2; BCL-2 Rep-2, plate row E, 0.078125 uM",28167 and 26661
same,Alpha signal (raw counts),"His-tagged BCL-2; BCL-2 Rep-2, plate row F, 0.0195312 uM",165828 and 146355
same,Alpha signal (raw counts),"His-tagged BCL-2; BCL-2 Rep-2, plate row H, 0.0012207 uM",607122 and 550701
same,Alpha signal (raw counts),"His-tagged BCL-2; BCL-2 Rep-2, plate row I, 0.000305176 uM",723572 and 761986
same,Alpha signal (raw counts),"His-tagged BCL-2; BCL-2 Rep-2, plate row J, 7.62939e-5 uM",723255 and 767572
same,Alpha signal (raw counts),"His-tagged BCL-2; BCL-2 Rep-2, plate row K, 1.90735e-5 uM",723831 and 708342
same,binary binding affinity to BCL-xL (in words),His-tagged BCL-xL; [1],much weaker than that of the warhead ABT263
same,IC50,His-tagged BCL-xL; BCL-xL Rep-1,39 nM
same,Ki,His-tagged BCL-xL; BCL-xL Rep-1,1.75 nM
same,Alpha signal (raw counts),"His-tagged BCL-xL; BCL-xL Rep-1, plate row B, 5 uM",27085 and 24738
same,Alpha signal (raw counts),"His-tagged BCL-xL; BCL-xL Rep-1, plate row C, 1.25 uM",28062 and 40230
same,Alpha signal (raw counts),"His-tagged BCL-xL; BCL-xL Rep-1, plate row D, 0.3125 uM",145116 and 115021
same,Alpha signal (raw counts),"His-tagged BCL-xL; BCL-xL Rep-1, plate row E, 0.078125 uM",433630 and 441172
same,Alpha signal (raw counts),"His-tagged BCL-xL; BCL-xL Rep-1, plate row F, 0.0195312 uM",726417 and 752069
same,Alpha signal (raw counts),"His-tagged BCL-xL; BCL-xL Rep-1, plate row G, 0.00488281 uM",950071 and 945138
same,Alpha signal (raw counts),"His-tagged BCL-xL; BCL-xL Rep-1, plate row H, 0.0012207 uM",1050463 and 1074380
same,Alpha signal (raw counts),"His-tagged BCL-xL; BCL-xL Rep-1, plate row I, 0.000305176 uM",1307721 and 1309993
same,Alpha signal (raw counts),"His-tagged BCL-xL; BCL-xL Rep-1, plate row J, 7.62939e-5 uM",1113170 and 1173569
same,Alpha signal (raw counts),"His-tagged BCL-xL; BCL-xL Rep-1, plate row K, 1.90735e-5 uM",1107772 and 1259986
same,Alpha signal (raw counts),"His-tagged BCL-xL; BCL-xL Rep-2, 7.62939e-5 uM",1188088 and 1161046
same,Alpha signal (raw counts),"His-tagged BCL-xL; BCL-xL Rep-2, plate row B, 5 uM",24343 and 23695
same,Alpha signal (raw counts),"His-tagged BCL-xL; BCL-xL Rep-2, plate row C, 1.25 uM",25479 and 38889
same,Alpha signal (raw counts),"His-tagged BCL-xL; BCL-xL Rep-2, plate row D, 0.3125 uM",95317 and 147841
same,Alpha signal (raw counts),"His-tagged BCL-xL; BCL-xL Rep-2, plate row E, 0.078125 uM",336804 and 343845
same,Alpha signal (raw counts),"His-tagged BCL-xL; BCL-xL Rep-2, plate row F, 0.0195312 uM",767361 and 853215
same,Alpha signal (raw counts),"His-tagged BCL-xL; BCL-xL Rep-2, plate row G, 0.00488281 uM",937707 and 1041403
same,Alpha signal (raw counts),"His-tagged BCL-xL; BCL-xL Rep-2, plate row H, 0.0012207 uM",1127054 and 1147040
same,Alpha signal (raw counts),"His-tagged BCL-xL; BCL-xL Rep-2, plate row I, 0.000305176 uM",1272095 and 1259132
same,Alpha signal (raw counts),"His-tagged BCL-xL; BCL-xL Rep-2, plate row K, 1.90735e-5 uM",1255062 and 1549086
same,Ki,"His-tagged BCL-xL; BCL-xL, mean of the two replicate values (line without label)",1.52 nM
same,Ki,"His-tagged BCL-xL; BCL-xL, second value (line without label below Rep-1, apparently Rep-2)",1.29 nM
